Assay results reported in patent US9353082B2, “Pharmaceutical compounds” (BIAL—PORTELA & CA, S.A., priority 2008, dated 2016).

Target: T1, FAAH (Mus musculus, UniProt O08914)
T1 construct: A fragment of liver, left lung lobe and brain without cerebellum were removed; from tissue; host or cells: male NMRI mice; brain (without cerebellum) and liver homogenates
T1 sequence (O08914 1-579): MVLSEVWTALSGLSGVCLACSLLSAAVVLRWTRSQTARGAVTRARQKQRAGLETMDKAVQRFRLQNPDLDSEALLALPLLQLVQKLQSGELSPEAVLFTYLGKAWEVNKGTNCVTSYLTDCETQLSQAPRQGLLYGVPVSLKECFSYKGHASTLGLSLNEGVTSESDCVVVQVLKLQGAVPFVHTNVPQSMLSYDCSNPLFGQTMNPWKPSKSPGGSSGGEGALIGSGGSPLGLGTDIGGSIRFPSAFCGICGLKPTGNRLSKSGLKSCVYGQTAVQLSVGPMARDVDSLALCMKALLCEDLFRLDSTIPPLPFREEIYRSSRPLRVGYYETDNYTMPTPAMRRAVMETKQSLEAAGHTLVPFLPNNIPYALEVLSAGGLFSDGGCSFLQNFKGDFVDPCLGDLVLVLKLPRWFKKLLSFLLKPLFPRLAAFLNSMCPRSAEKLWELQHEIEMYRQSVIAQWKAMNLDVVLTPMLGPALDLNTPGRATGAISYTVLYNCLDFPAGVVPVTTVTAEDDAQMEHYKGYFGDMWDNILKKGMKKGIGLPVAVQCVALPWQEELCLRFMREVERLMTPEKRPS
Assay: In vivo FAAH inhibition after oral dosing, remaining activity in brain homogenate (BRh, central nervous tissue)
Design: species or system NMRI mice
Details: 8 h
Method in brief: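 Male NMRI mice, fasted overnight, got 30 or 3 mg/kg compound orally (0.5% CMC suspension or water) and were compared with vehicle controls. Brain (no cerebellum) and liver homogenates were incubated with 2 μM AEA plus 5 nM 3H-AEA at 37 °C, 10 min for brain and 7 min for liver. Remaining FAAH activity is % of vehicle after blank subtraction.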

- In Vivo BRh 3 mg/kg 8 h, remaining FAAH activity (brain homogenate, 3 mg/kg): 120.6 % of control
- FAAH BRh 3 mg · kg · 8 h (in vivo, mouse brain, 3 mg/kg oral, remaining enzymatic activity): 120.6 % of control
Structure (SMILES): COc1cccc(-c2cn(C(=O)N3CCCc4ccccc43)cn2)c1 [Compound 39, (3,4-dihydroquinolin-1(2H)-yl)(4-(3-methoxyphenyl)-1H-imidazol-1-yl)methanone]
